From US20080045507A1, “SUBSTITUTED BENZAMIDE MODULATORS OF THE HISTAMINE H3 RECEPTOR” (priority 2006, published 2008)
pKi: −log10 of the molar value.

Legend:
human H3 receptor [1] = target: T1, human H3 receptor (Homo sapiens, UniProt Q9Y5N1); test: H3 receptor binding, cloned human H3 receptor stably expressed in SK-N-MC cells; conditions: average of results
T1 construct: expressed in transfected cells
Description: (§1) Binding of compounds to the cloned human and rat H3 receptors, stably expressed in SK-N-MC cells, was performed as described by Barbier, A. J. et al. (Br. J. Pharmacol. 2004, 143(5), 649-661). Data for compounds tested in these assays are presented in Table 1 (human) and Table 2 (rat), as an average of the results obtained.

rat H3 receptor [2] = target: T2, rat H3 receptor (Rattus norvegicus, UniProt Q9QYN8); test: Cyclic AMP accumulation, SK-N-MC subline with reporter construct and rat H3 receptor; format: cell-based; conditions: cAMP accumulation, SK-N-MC reporter cells expressing rat H3; average of results; read-out: Rat pA2 (converted)
T2 construct: expressed in transfected cells
T2 sequence (Q9QYN8 whole entry): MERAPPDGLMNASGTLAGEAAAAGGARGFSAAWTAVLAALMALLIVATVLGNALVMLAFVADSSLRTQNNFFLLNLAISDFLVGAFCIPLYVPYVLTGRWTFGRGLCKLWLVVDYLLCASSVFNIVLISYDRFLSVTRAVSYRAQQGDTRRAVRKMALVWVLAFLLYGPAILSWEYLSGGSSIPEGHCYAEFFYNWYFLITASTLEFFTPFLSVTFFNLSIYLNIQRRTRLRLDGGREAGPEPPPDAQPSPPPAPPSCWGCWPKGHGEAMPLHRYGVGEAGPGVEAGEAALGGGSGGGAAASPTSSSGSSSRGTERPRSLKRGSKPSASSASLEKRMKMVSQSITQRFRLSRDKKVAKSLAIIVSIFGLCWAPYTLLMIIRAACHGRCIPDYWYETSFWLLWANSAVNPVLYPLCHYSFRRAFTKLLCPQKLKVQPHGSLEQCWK
Source text: (§2) Sublines of SK-N-MC cells were created that expressed a reporter construct and either the human or rat H3 receptor. The pA2 values were obtained as described by Barbier et al. (2004). Data for compounds tested in these assays are presented in Table 3, as an average of the results obtained (NT=not tested).

human H3 receptor [3] = target: T1, human H3 receptor; test: Cyclic AMP accumulation, SK-N-MC subline with reporter construct and human H3 receptor; format: cell-based; conditions: cAMP accumulation, SK-N-MC reporter cells expressing human H3; average of results; read-out: Human pA2 (converted)
Source text: as §2

rat H3 receptor [4] = target: T2, rat H3 receptor; test: H3 receptor binding, cloned rat H3 receptor stably expressed in SK-N-MC cells; conditions: average of results
Description: as §1

T1 sequence (Q9Y5N1 whole entry): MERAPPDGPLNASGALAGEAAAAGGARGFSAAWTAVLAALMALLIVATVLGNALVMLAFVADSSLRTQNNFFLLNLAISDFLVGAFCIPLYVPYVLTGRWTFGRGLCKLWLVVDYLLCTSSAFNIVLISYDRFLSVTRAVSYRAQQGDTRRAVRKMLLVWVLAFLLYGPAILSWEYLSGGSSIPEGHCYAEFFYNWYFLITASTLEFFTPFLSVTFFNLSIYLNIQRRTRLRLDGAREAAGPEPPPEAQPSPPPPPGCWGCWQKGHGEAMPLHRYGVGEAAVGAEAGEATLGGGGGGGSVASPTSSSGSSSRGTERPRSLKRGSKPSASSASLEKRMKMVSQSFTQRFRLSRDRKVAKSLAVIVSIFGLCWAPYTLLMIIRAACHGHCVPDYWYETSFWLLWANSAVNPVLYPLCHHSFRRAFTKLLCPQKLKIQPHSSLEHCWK

Row | Structure (SMILES) | pKi (human H3 receptor [1]) | further results
1 | CC(C)N1CCN(C(=O)c2ccc(C(O)C3CCCCC3)cc2)CC1 (stereo not drawn) [Example 1, [4-(Cyclohexyl-hydroxy-methyl)-phenyl]-(4-isopropyl-piperazin-1-yl)-methanone] | 8.15 | 
2 | CCC(O)c1ccc(C(=O)N2CCN(C(C)C)CC2)cc1 (stereo not drawn) [Example 2, [4-(1-Hydroxy-propyl)-phenyl]-(4-isopropyl-piperazin-1-yl)-methanone] | 7.49 | 
3 | CC(C)N1CCN(C(=O)c2ccc(C(O)c3ccccc3)cc2)CC1 (stereo not drawn) [Example 3, [4-(Hydroxy-phenyl-methyl)-phenyl]-(4-isopropyl-piperazin-1-yl)-methanone] | 7.85 | 
4 | CC(O)c1ccc(C(=O)N2CCN(C(C)C)CC2)cc1 (stereo not drawn) [Example 4, [4-(1-Hydroxy-ethyl)-phenyl]-(4-isopropyl-piperazin-1-yl)-methanone] | 7.24 | 
5 | CC(C)C(O)c1ccc(C(=O)N2CCN(C(C)C)CC2)cc1 (stereo not drawn) [Example 5, [4-(1-Hydroxy-2-methyl-propyl)-phenyl]-(4-isopropyl-piperazin-1-yl)-methanone] | 8.22 | 
6 | CC(C)N1CCN(C(=O)c2ccc(CO)cc2)CC1 [Example 6, (4-Hydroxymethyl-phenyl)-(4-isopropyl-piperazin-1-yl)-methanone] | 6.79 | Kb (rat H3 receptor [2]): 0.295 µM
7 | CC(C)N1CCCN(C(=O)c2ccc(C(O)C3CCCCC3)cc2)CC1 (stereo not drawn) [Example 7, [4-(Cyclohexyl-hydroxy-methyl)-phenyl]-(4-isopropyl-[1,4]diazepan-1-yl)-methanone] | 8.70 | Kb (human H3 receptor [3]): 0.000871 µM; Kb (rat H3 receptor [2]): 0.0174 µM; pKi (rat H3 receptor [4]): 7.12
8 | CC(C)N1CCCN(C(=O)c2ccc(CO)cc2)CC1 [Example 8, (4-Hydroxymethyl-phenyl)-(4-isopropyl-[1,4]diazepan-1-yl)-methanone] | 7.51 | 
9 | CC(C)N1CCCN(C(=O)c2ccc(C(=O)C3CCCCC3)cc2)CC1 [Example 9, (4-Cyclohexanecarbonyl-phenyl)-(4-isopropyl-[1,4]diazepan-1-yl)-methanone] | 8.52 | 
10 | CCC(O)c1ccc(C(=O)N2CCCN(C(C)C)CC2)cc1 (stereo not drawn) [Example 10, [4-(1-Hydroxy-propyl)-phenyl]-(4-isopropyl-[1,4]diazepan-1-yl)-methanone] | 8.05 | pKi (rat H3 receptor [4]): 6.29
11 | CC(C)N1CCCN(C(=O)c2ccc(C(O)c3ccccc3)cc2)CC1 (stereo not drawn) [Example 11, [4-(Hydroxy-phenyl-methyl)-phenyl]-(4-isopropyl-[1,4]diazepan-1-yl)-methanone] | 8.70 | pKi (rat H3 receptor [4]): 7.11
12 | CC(O)c1ccc(C(=O)N2CCCN(C(C)C)CC2)cc1 (stereo not drawn) [Example 12, [4-(1-Hydroxy-ethyl)-phenyl]-(4-isopropyl-[1,4]diazepan-1-yl)-methanone] | 7.77 | 
13 | CC(C)C(O)c1ccc(C(=O)N2CCCN(C(C)C)CC2)cc1 (stereo not drawn) [Example 13, [4-(1-Hydroxy-2-methyl-propyl)-phenyl]-(4-isopropyl-[1,4]diazepan-1-yl)-methanone] | 8.22 | 
14 | O=C(c1ccc(C(O)c2ccccc2)cc1)N1CCN(C2CCC2)CC1 (stereo not drawn) [Example 14, (4-cyclobutyl-piperazin-1-yl)-[4-(hydroxy-phenyl-methyl)-phenyl]-methanone] | 8.40 | 
15 | CCC(O)c1ccc(C(=O)N2CCN(C3CCC3)CC2)cc1 (stereo not drawn) [Example 15, (4-Cyclobutyl-piperazin-1-yl)-[4-(1-hydroxy-propyl)-phenyl]-methanone] | 7.92 | 
16 | CC(C)C(O)c1ccc(C(=O)N2CCN(C3CCC3)CC2)cc1 (stereo not drawn) [Example 16, (4-Cyclobutyl-piperazin-1-yl)-[4-(1-hydroxy-2-methyl-propyl)-phenyl]-methanone] | 7.82 | 
17 | O=C(c1ccc(C(O)C2CCCCC2)cc1)N1CCN(C2CCC2)CC1 (stereo not drawn) [Example 17, (4-Cyclobutyl-piperazin-1-yl)-[4-(cyclohexyl-hydroxy-methyl)-phenyl]-methanone] | 8.40 | 
18 | O=C(c1ccc(CO)cc1)N1CCN(C2CCC2)CC1 [Example 18, (4-Cyclobutyl-piperazin-1-yl)-(4-hydroxymethyl-phenyl)-methanone] | 7.37 | 
19 | CCC(O)c1ccc(C(=O)N2CCCN(C3CCC3)CC2)cc1 (stereo not drawn) [Example 19, (4-Cyclobutyl-[1,4]diazepan-1-yl)-[4-(1-hydroxy-propyl)-phenyl]-methanone] | 9.00 | Kb (human H3 receptor [3]): 0.000182 µM; Kb (rat H3 receptor [2]): 0.00331 µM
20 | O=C(c1ccc(C(O)C2CCCCC2)cc1)N1CCCN(C2CCC2)CC1 (stereo not drawn) [Example 20, (4-Cyclobutyl-[1,4]diazepan-1-yl)-[4-(cyclohexyl-hydroxy-methyl)-phenyl]-methanone] | 9.00 | 
21 | O=C(c1ccc(C(O)c2ccccc2)cc1)N1CCCN(C2CCC2)CC1 (stereo not drawn) [Example 21, (4-Cyclobutyl-[1,4]diazepan-1-yl)-[4-(hydroxy-phenyl-methyl)-phenyl]-methanone] | 9.00 | 
22 | CC(C)C(O)c1ccc(C(=O)N2CCCN(C3CCC3)CC2)cc1 (stereo not drawn) [Example 22, (4-Cyclobutyl-[1,4]diazepan-1-yl)-[4-(1-hydroxy-2-methyl-propyl)-phenyl]-methanone] | 9.00 | 

Row | Structure (SMILES) | pKi (human H3 receptor [1]) | further results
23 | O=C(c1ccc(CO)cc1)N1CCCN(C2CCC2)CC1 [Example 23, (4-Cyclobutyl-[1,4]diazepan-1-yl)-(4-hydroxymethyl-phenyl)-methanone] | 8.70 | 
24 | O=C(c1ccc(C(O)C2CCCCC2)cc1)N1CCN(C2CC2)CC1 (stereo not drawn) [Example 24, [4-(Cyclohexyl-hydroxy-methyl)-phenyl]-(4-cyclopropyl-piperazin-1-yl)-methanone] | 7.72 | 
25 | O=C(c1ccc(C(O)c2ccccc2)cc1)N1CCN(C2CC2)CC1 (stereo not drawn) [Example 25, (4-Cyclopropyl-piperazin-1-yl)-[4-(hydroxy-phenyl-methyl)-phenyl]-methanone] | 7.23 | 
26 | CC(C)C(O)c1ccc(C(=O)N2CCN(C3CC3)CC2)cc1 (stereo not drawn) [Example 26, (4-Cyclopropyl-piperazin-1-yl)-[4-(1-hydroxy-2-methyl-propyl)-phenyl]-methanone] | 7.08 | 
27 | O=C(c1ccc(CO)cc1)N1CCCN(C2CC2)CC1 [Example 28, (4-Cyclopropyl-[1,4]diazepan-1-yl)-(4-hydroxymethyl-phenyl)-methanone] | 7.70 | 
28 | O=C(c1ccc(C(=O)N2CCCN(C3CC3)CC2)cc1)C1CCCCC1 [Example 29, (4-Cyclohexanecarbonyl-phenyl)-(4-cyclopropyl-[1,4]diazepan-1-yl)-methanone] | 9.00 | Kb (human H3 receptor [3]): 0.000912 µM; Kb (rat H3 receptor [2]): 0.00692 µM
29 | CCC(O)c1ccc(C(=O)N2CCCN(C3CC3)CC2)cc1 (stereo not drawn) [Example 31, (4-Cyclopropyl-[1,4]diazepan-1-yl)-[4-(1-hydroxy-propyl)-phenyl]-methanone] | 8.40 | pKi (rat H3 receptor [4]): 6.69
30 | CC(C)C(O)c1ccc(C(=O)N2CCCN(C3CC3)CC2)cc1 (stereo not drawn) [Example 32, (4-Cyclopropyl-[1,4]diazepan-1-yl)-[4-(1-hydroxy-2-methyl-propyl)-phenyl]-methanone] | 8.52 | Kb (human H3 receptor [3]): 0.000794 µM; Kb (rat H3 receptor [2]): 0.012 µM
31 | CCc1ccc(C(=O)N2CCN(C3CCC3)CC2)cc1 [Example 34, (4-Cyclobutyl-piperazin-1-yl)-(4-ethyl-phenyl)-methanone] | 7.55 | 
32 | CC(C)c1ccc(C(=O)N2CCN(C3CCC3)CC2)cc1 [Example 35, (4-Cyclobutyl-piperazin-1-yl)-(4-isopropyl-phenyl)-methanone] | 7.96 | 
33 | O=C(c1ccc(C2CCCCC2)cc1)N1CCN(C2CCC2)CC1 [Example 36, (4-Cyclobutyl-piperazin-1-yl)-(4-cyclohexyl-phenyl)-methanone] | 8.05 | pKi (rat H3 receptor [4]): 7.10
34 | O=C(c1ccc(Cc2ccccc2)cc1)N1CCN(C2CCC2)CC1 [Example 37, (4-Benzyl-phenyl)-(4-cyclobutyl-piperazin-1-yl)-methanone] | 8.15 | 
35 | CCCc1ccc(C(=O)N2CCN(C3CCC3)CC2)cc1 [Example 38, (4-Cyclobutyl-piperazin-1-yl)-(4-propyl-phenyl)-methanone] | 7.51 | 
36 | CCCCc1ccc(C(=O)N2CCN(C3CCC3)CC2)cc1 [Example 39, (4-Butyl-phenyl)-(4-cyclobutyl-piperazin-1-yl)-methanone] | 7.62 | 
37 | CCCCCc1ccc(C(=O)N2CCN(C3CCC3)CC2)cc1 [Example 40, (4-Cyclobutyl-piperazin-1-yl)-(4-pentyl-phenyl)-methanone] | 7.77 | 
38 | CC(C)(O)c1ccc(C(=O)N2CCN(C3CCC3)CC2)cc1 [Example 41, (4-Cyclobutyl-piperazin-1-yl)-[4-(1-hydroxy-1-methyl-ethyl)-phenyl]-methanone] | 7.49 | 
39 | O=C(c1ccc(C2(O)CCCCC2)cc1)N1CCN(C2CCC2)CC1 [Example 42, (4-Cyclobutyl-piperazin-1-yl)-[4-(1-hydroxy-cyclohexyl)-phenyl]-methanone] | 8.15 | 
40 | CCC(O)c1ccc(C(=O)N2CCN(C3CC3)CC2)cc1 (stereo not drawn) [Example 48, (4-Cyclopropyl-piperazin-1-yl)-[4-(1-hydroxy-propyl)-phenyl]-methanone] | 6.66 | 
41 | O=C(c1ccc(CO)cc1)N1CCN(C2CC2)CC1 [Example 49, (4-Cyclopropyl-piperazin-1-yl)-(4-hydroxymethyl-phenyl)-methanone] | 6.23 | 
42 | CCCCN1CCN(C(=O)c2ccc(CO)cc2)CC1 [Example 50, (4-Butyl-piperazin-1-yl)-(4-hydroxymethyl-phenyl)-methanone] | 7.26 | 
43 | CCC(C)N1CCN(C(=O)c2ccc(CO)cc2)CC1 (stereo not drawn) [Example 51, (4-sec-Butyl-piperazin-1-yl)-(4-hydroxymethyl-phenyl)-methanone] | 6.28 | 
